Assay results: the Kinase Knowledgebase extract (Sharma et al. 2016)
Where “and” joins values, the source holds several entries; their conditions need not be identical. Equal entries are not always repeated.

How the values were obtained:
[1] = molecular target: EGFR (UniProt P00533)
[2] = molecular target: EGFR (Hamster) (UniProt P00533); settings: for IC50: er22
[3] = molecular target: EGFR (UniProt P00533); remark: listed apart in the source

Sequence of EGFR (P00533 whole entry, looked up): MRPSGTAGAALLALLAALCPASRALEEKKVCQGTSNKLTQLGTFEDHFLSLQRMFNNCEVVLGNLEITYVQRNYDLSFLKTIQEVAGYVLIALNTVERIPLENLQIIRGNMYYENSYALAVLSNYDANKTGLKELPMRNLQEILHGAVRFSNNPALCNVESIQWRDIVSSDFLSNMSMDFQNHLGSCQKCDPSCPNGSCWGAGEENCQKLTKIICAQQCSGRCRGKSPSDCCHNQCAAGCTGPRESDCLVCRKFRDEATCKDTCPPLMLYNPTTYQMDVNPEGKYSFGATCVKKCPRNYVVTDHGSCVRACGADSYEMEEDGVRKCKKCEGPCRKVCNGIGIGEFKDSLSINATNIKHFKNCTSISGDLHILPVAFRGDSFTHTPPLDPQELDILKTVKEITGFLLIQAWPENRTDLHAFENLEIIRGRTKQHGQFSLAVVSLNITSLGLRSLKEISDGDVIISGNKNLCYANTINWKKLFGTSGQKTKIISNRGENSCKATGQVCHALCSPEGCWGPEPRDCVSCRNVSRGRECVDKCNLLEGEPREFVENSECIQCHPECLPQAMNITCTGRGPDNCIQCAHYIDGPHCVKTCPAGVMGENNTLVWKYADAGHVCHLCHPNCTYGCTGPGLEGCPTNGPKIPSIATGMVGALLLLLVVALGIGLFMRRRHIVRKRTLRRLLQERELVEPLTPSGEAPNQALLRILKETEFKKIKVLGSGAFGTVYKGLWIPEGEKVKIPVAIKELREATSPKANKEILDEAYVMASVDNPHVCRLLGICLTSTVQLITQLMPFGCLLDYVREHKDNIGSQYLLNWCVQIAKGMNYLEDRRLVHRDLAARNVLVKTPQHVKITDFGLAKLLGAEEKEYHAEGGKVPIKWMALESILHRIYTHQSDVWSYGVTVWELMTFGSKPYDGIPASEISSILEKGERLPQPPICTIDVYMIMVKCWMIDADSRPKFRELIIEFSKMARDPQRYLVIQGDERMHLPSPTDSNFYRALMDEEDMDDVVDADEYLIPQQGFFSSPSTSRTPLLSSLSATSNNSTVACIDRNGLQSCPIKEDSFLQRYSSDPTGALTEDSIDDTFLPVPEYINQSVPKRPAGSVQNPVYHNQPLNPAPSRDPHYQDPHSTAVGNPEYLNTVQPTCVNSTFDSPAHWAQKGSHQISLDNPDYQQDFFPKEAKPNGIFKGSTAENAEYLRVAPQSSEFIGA
Sequence of EGFR (Hamster) (P00533 whole entry, looked up): as above

IC50 [1] | IC50 [2] | IC50 [3] | inhibition ([1]; concentration not given here) | SMILES | inhibition ([2]; er22, dose or concentration not given here)
950 nM | 2500 nM |  |  | Oc1ccc(O)c(CNc2cccc(COCc3ccccc3)c2)c1 | 
1300 nM | 8200 nM |  |  | Oc1ccc(O)c(CNc2ccc(O)c(C(O)c3ccccc3)c2)c1 (stereo not given) | 
20 nM and 38 nM | 6000 nM and 7000 nM | 40 nM |  | O=C(NCc1ccccc1)c1cc(NCc2cc(O)ccc2O)ccc1O | 
2000 nM | 12000 nM |  |  | OCc1cc(NCc2cc(O)ccc2O)ccc1O | 
1900 nM | 5000 nM |  |  | CC(CSCc1cc(NCc2cc(O)ccc2O)ccc1O)CC(C)(C)C (stereo not given) | 
1500 nM |  |  |  | CCCCCCCCCCCCCCCCC(=O)Oc1ccc(NCc2cc(O)ccc2O)cc1C(=O)NCc1ccccc1 | 20%
5000 nM | 4000 nM |  |  | O=C(CCc1ccccc1)c1c(O)cccc1NCc1cc(O)ccc1O | 
190 nM | > 10000 nM |  |  | N#Cc1cc(NCc2cc(O)ccc2O)ccc1O | 
10000 nM | 2000 nM |  |  | CC(COCc1cc(NCc2cc(O)ccc2O)ccc1O)CC(C)(C)C (stereo not given) | 
800 nM | 6000 nM |  |  | CC(CNC(=O)c1cc(NCc2cc(O)ccc2O)ccc1O)CC(C)(C)C (stereo not given) | 
300 nM | 10000 nM |  |  | O=C(c1ccccc1)c1cc(NCc2cc(O)ccc2O)ccc1O | 
20000 nM | 800 nM |  |  | COc1ccc(NCc2cc(O)ccc2O)cc1COCC(C)CC(C)(C)C (stereo not given) | 
550 nM | > 10000 nM |  |  | CN(Cc1ccccc1)C(=O)c1cc(NCc2cc(O)ccc2O)ccc1O | 
1300 nM | 12000 nM |  |  | CC(=O)c1cccc(NCc2cc(O)ccc2O)c1 | 
1600 nM | > 20000 nM |  |  | CC(O)c1cccc(NCc2cc(O)ccc2O)c1 (stereo not given) | 
150 nM | > 10000 nM |  |  | CC(C)c1ccc(NC(=O)c2cc(NCc3cc(O)ccc3O)ccc2O)cc1 | 
150 nM | > 5000 nM |  |  | Oc1ccc(O)c(CNc2ccc(O)c(C(=S)NCc3ccccc3)c2)c1 | 
120 nM | > 10000 nM |  |  | CC(C)c1ccccc1NC(=O)c1cc(NCc2cc(O)ccc2O)ccc1O | 

IC50 [1] | IC50 [2] | IC50 [3] | inhibition ([1]; concentration not given here) | SMILES | inhibition ([2]; er22, dose or concentration not given here)
700 nM | > 10000 nM |  |  | Oc1ccc(O)c(CNc2ccc(O)c(COc3ccccc3)c2)c1 | 
1800 nM | 20000 nM |  |  | Oc1ccc(O)c(CNc2cccc(C(O)c3ccccc3)c2)c1 (stereo not given) | 
800 nM | 5000 nM |  |  | O=C(c1ccccc1)c1cccc(NCc2cc(O)ccc2O)c1 | 
160 nM | 6500 nM |  |  | O=C(CCc1ccccc1)c1cc(NCc2cc(O)ccc2O)ccc1O | 
 |  | ≥ 10000 nM |  | CC(COC(=O)c1cc(NCc2cc(O)ccc2O)ccc1O)CC(C)(C)C (stereo not given) | 
> 10000 nM | 2500 nM |  |  | CC(COCc1cccc(NCc2cc(O)ccc2O)c1)CC(C)(C)C (stereo not given) | 
2000 nM | 4800 nM |  |  | O=C(Cc1ccccc1)c1cccc(NCc2cc(O)ccc2O)c1O | 
 |  |  | 24% | CC(CC(=O)c1cccc(NCc2cc(O)ccc2O)c1O)CC(C)(C)C (stereo not given) | 
20 nM | 10000 nM | 90 nM |  | O=C(Nc1ccccc1)c1cc(NCc2cc(O)ccc2O)ccc1O | 
340 nM | > 10000 nM |  |  | CC(=O)c1cc(NCc2cc(O)ccc2O)ccc1O | 
70 nM | 10000 nM |  |  | CC(NC(=O)c1cc(NCc2cc(O)ccc2O)ccc1O)c1ccccc1 (stereo not given) | 
800 nM | > 10000 nM |  |  | Oc1ccc(O)c(CNc2ccc(O)c(COCc3ccccc3)c2)c1 | 
220 nM | 9000 nM | 300 nM |  | CC(C)(C)CC(C)(C)NC(=O)c1cc(NCc2cc(O)ccc2O)ccc1O | 
540 nM | 10000 nM |  |  | COC(=O)[C@H](Cc1ccccc1)NC(=O)c1cc(NCc2cc(O)ccc2O)ccc1O | 
370 nM | 2000 nM |  |  | CC(CC(=O)c1cc(NCc2cc(O)ccc2O)ccc1O)CC(C)(C)C (stereo not given) | 
 | 2250 nM |  |  | O=C(OCCCc1ccccc1)c1cc(NCc2cc(O)ccc2O)ccc1O | 
60 nM | 10000 nM |  |  | O=C(Cc1ccccc1)c1cc(NCc2cc(O)ccc2O)ccc1O | 
